Data set [1] is described as follows: Parallel Artificial Membrane Permeability Assay (PAMPA) at pH 6.8. In kind it is physicochemical. The text has this: (§1) The physicochemical properties of relevance for the absorption of the compound, such as the solubility and the membrane permeability, especially at a pH close to neutral pH can be measured using the procedure as described by L. ZHOU et al. in JOURNAL OF PHARMACEUTICAL SCIENCES, VOL. 96, NO. 11, p. 3052-3071 (2007) for the solubility at pH 6.8 and the procedure as described by F. Wohnsland and B. Faller in Journal of Medicinal Chemistry Vol 44, p. 923-930 (2001) for the Parallel Artificial Membrane Permeability Assay (PAMPA) at pH 6.8.
The following permeability log Pe was measured for compound of formula (I) as exemplified below: […]
For orientation: The PAMPA barrier holds no transporters, so it reflects passive diffusion.

Data set [2] can be described thus: High-throughput equilibrium solubility at pH 6.8. In kind it is physicochemical. The settings on record: pH 6.8, aqueous buffer, thermodynamic from solid; read-out: HT-Eq Sol/pH 6.8.
From the text: as §1

The subject of data set [3] is PKB Ser473 phosphorylation in Rat1-myr-HA-p110 beta cells. Description: Reverse protein array, PKB Ser473 phosphorylation in Rat1-myr-HA-p110 beta cells. The class given is cell-based. The settings on record: Rattus norvegicus, 0.5 h, 30 minutes compound incubation, read-out: p-PKB/IC50_beta. Here is the method:
(§2) No. 15140-114) and 10 μg/ml Puromycine (Sigma, cat. No. P9620).
(§3) The Rat1-myr-HA-p110 alpha, beta and delta cells were trypsinized and counted with a CASY TT cell counter (Schärfe System GmbH, Reutlingen Germany). The cells were diluted in fresh DMEM complete medium and 3×10^4 cells/150 μl/well seeded in 96-well TPP-tissue culture plates (TPP, cat. No. 92096). The plates were incubated at 37° C. and 5% CO2 under humidified condition for at least 20 h. Compound of formula I working solutions were prepared freshly as serial 8 step dilutions (vol/vol) in DMSO on the day of the experiment. The working solutions were further diluted 1/500 in cell culture medium to get final compound concentrations of 10, 3.333, 1.111, 0.370, 0.123, 0.041, 0.014, 0.005 μM. The final DMSO concentration was kept constant at 0.2%. cell culture medium containing 0.2% DMSO was used as vehicle treatment control. Post incubation, the cells were treated with the serial compound dilution. 50 μl of the compound medium mixture was added to the wells containing cells and 150 μl DMEM medium and incubated for 30 minutes (37° C., 5% CO2). After 30 minutes of incubation, the medium mixture was quickly removed by aspiration. For cell lysis, a mixture of 10% CLB1 CeLyA lysis buffer (Zeptosens, cat. No. 9000), 90% CSBL1 CeLyA spotting buffer (Zeptosens, cat. No. 9020) was freshly prepared and supplemented with 1% Octyl β-D-glucopyranoside (SIGMA, cat. No. 08001-5G) and 1 mM Na-Orthovanadate (Sigma, cat No. S-6508). 50 μl of the described lysis buffer mix was added to each well, followed by 10 minutes of incubation on ice. After an additional freeze-thaw cycle, another 50 μl of the lysis buffer mix without Octyl β-D-glucopyranoside was added to the wells, and 90 μl of the cell lysate was transferred to a 96-well V-bottom plate (Fisher Scientific, cat. No. 6067Y), followed by a centrifugation step (5 min, 1500 rpm at 19° C. in an Eppendorf 5810R centrifuge) to remove the unlysed cell debris.
(§4) The samples were spotted onto ZeptoMARK® PWG protein microarray chips (Zeptosens, Witterswil, Switzerland) with the piezoelectric microdispense-based, non-contact Nano-Plotter 2.1 (GeSiM, Grosserkmannsdorf, Germany). Each sample was spotted at 4 different sample concentrations (d1=100%, d2=75%, d3=50%, d4=25%) by diluting the cell lysate with the corresponding volume of lysis buffer mix. After spotting the ZeptoMARK® protein microarrays, the chips are incubated for 1 hour at 37° C. To receive a uniform blocking result, the CeLyA blocking buffer BB1 (Zeptosens, cat. No. 9040) is administered via an ultrasonic nebulizer. After 20 minutes of blocking the chips are extensively rinsed with deionized water (Milli-Q quality, 18MΩ×cm) and dried in a nitrogen air flow.
(§5) After the sample spotting and blocking procedure, the ZeptoMARK® chips were transferred to the ZeptoCARRIER (Zeptosens, cat. No. 1100), whose six flow cells individually address the six arrays on a chip, and washed twice with 200 μl CAB1 CeLyA assay buffer (Zeptosens, cat. No. 9032). The assay buffer was then aspirated and each compartment incubated with 100 μl of the primary target antibody (pAkt Ser473; CST#9271) at RT over night. Post incubation, the primary antibody was removed, the arrays washed twice with CAB1 buffer and further incubated with 100 μl of Alexa fluor 647-labeled anti rabbit IgG Fab fragments (Invitrogen; #Z25305) for one hour at RT in the dark. After incubation, the arrays were washed twice with 200 μl CAB1 buffer. The fluorescence of the target-bound Fab fragments is read out on the ZeptoReader (Zeptosens, Witterswil, Switzerland) using a laser (excitation wavelength 635 nm) and a CCD camera. The fluorescence signal was assessed with exposure times of 1, 3, 5 and 10 seconds, depending on the intensity of the signal. The resulting four images taken per array are stored as 16-bit TIF files. […]

Data set [4] relates to PKB Ser473 phosphorylation in Rat1-myr-HA-p110 delta cells. Description: Reverse protein array, PKB Ser473 phosphorylation in Rat1-myr-HA-p110 delta cells. In kind it is cell-based. The following applies: Rattus norvegicus, 0.5 h, 30 minutes compound incubation, read-out: p-PKB/IC50_delta. The procedure:
as §2, §3, §4, §5

Data set [5] has as its system PKB Ser473 phosphorylation in Rat1-myr-HA-p110 alpha cells. Kind of data set: Reverse protein array, PKB Ser473 phosphorylation in Rat1-myr-HA-p110 alpha cells. In kind it is cell-based. The following applies: Rattus norvegicus, 0.5 h, 30 minutes compound incubation, read-out: p-PKB/IC50_alpha. The procedure:
as §2, §3, §4, §5

Data set [6] relates to S6 Ribosomal Protein phosphorylation Ser235/236 in TSC1 null mouse embryo fibroblast (MEF) cells. Kind of data set: Reverse protein array, S6 Ribosomal Protein phosphorylation in TSC1 null MEF cells. The class given is cell-based. The following applies: 1 h, TSC1-/- MEFs, 60 minutes, read-out: p-S6 IC50. The procedure: TSC1−/− MEFs cells (provided by D. Kwiatkowski), were cultivated in Dulbecco's modified Eagle's medium (DMEM high Glucose, GIBCO, cat. No. 41956-039) supplemented with 10% heat inactivated fetal bovine calf serum (Amimed, cat. No. 2-01F16-I), 1% L-Glutamine (Invitrogen, cat. No. 25030-02), 1% penicillin-streptomycin (GIBCO, cat. No. 15140-114) at 37° C. in a 5% CO2 and 95% relative humidity atmosphere incubator.
The TSC1−/− cells were trypsinized and counted with a CASY TT cell counter (Schärfe System GmbH, Reutlingen Germany). The cells were diluted in fresh DMEM complete medium and 0.75×10^4 cells/150 μl/well seeded in 96-well TPP-tissue culture plates (TPP, cat. No. 92096). The plates were incubated at 37° C. and 5% CO2 under humidified condition for at least 20 h. Working solutions were prepared freshly as serial 8 step dilutions (vol/vol) in DMSO on the day of the experiment. The working solutions were further diluted 1/5000 in cell culture medium to get final compound concentrations of […]. The final DMSO concentration was kept constant at 0.02%. cell culture medium containing 0.02% DMSO was used as vehicle treatment control. Post incubation, the cells were treated with the serial compound dilution. 50 μl of the compound medium mixture was added to the wells containing cells and 150 μl DMEM medium and incubated for 60 minutes (37° C., 5% CO2). After 60 minutes of incubation, the medium mixture was quickly removed by aspiration. For cell lysis, a mixture of 10% CLB1 CeLyA lysis buffer (Zeptosens, cat. No. 9000), 90% CSBL1 CeLyA spotting buffer (Zeptosens, cat. No. 9020) was freshly prepared and supplemented with 1% Octyl β-D-glucopyranoside (SIGMA, cat. No. 08001-5G) and 1 mM Na-Orthovanadate (Sigma, cat No. S-6508). 50 μl of the described lysis buffer mix was added to each well, followed by 10 minutes of incubation on ice. After an additional freeze-thaw cycle, another 50 μl of the lysis buffer mix without Octyl β-D-glucopyranoside was added to the wells, and 90 μl of the cell lysate was transferred to a 96-well V-bottom plate (Fisher Scientific, cat. No. 6067Y), followed by a centrifugation step (5 min, 1500 rpm at 19° C. in an Eppendorf 5810R centrifuge) to remove the unlysed cell debris.
The spotting of the chips follows the previous described method.
The signal detection and the data analysis follows the previous described method using the pS6 ribosomal protein Ser235/236 (CST, cat. No. #2211) as a primary antibody.

Converted amounts (≈) assume the structure as drawn.

Turning to `COCCOc1cncc(-c2ccc3ncc4c(c3c2)n(-c2cccnc2C)c(=O)n4C)c1` [Example 2.17, 8-[5-(2-Methoxy-ethoxy)-pyridin-3-yl]-3-methyl-1-(2-methyl-pyridin-3-yl)-1,3-dihydro-imidazo[4,5-c]quinolin-2-one], the “HT-perm/logPe pH6.8” value in data set [1] was −4.8. The solubility thermodynamic in data set [2] is more than 441 µg/mL. The IC50 in data set [3] worked out at 491 nM; in data set [4], 803 nM; in data set [5], 85.6 nM.

On to `Cc1cccnc1-n1c(=O)n(C)c2cnc3ccc(-c4cnc5[nH]ccc5c4)cc3c21` [Example 3.2, 3-Methyl-1-(3-methyl-pyridin-2-yl)-8-(1H-pyrrolo[2,3-b]pyridin-5-yl)-1,3-dihydro-imidazo[4,5-c]quinolin-2-one], for which the “HT-perm/logPe pH6.8” value in data set [1] is recorded as −5.0. Besides, in data set [2], the solubility thermodynamic worked out at 14 µg/mL (≈ 34.4 µM). Further, the IC50 in data set [3] turned out to be 74.1 nM; in data set [4], 109 nM; in data set [5] it was 58.5 nM.

Regarding `Cc1cccnc1-n1c(=O)n(C)c2cnc3ccc(-c4ccc(OCCCN(C)C)nc4)cc3c21` [Example 3.7, 8-[6-(3-Dimethylamino-propoxy)-pyridin-3-yl]-3-methyl-1-(3-methyl-pyridin-2-yl)-1,3-dihydro-imidazo[4,5-c]quinolin-2-one], in data set [2], the solubility thermodynamic is more than 469 µg/mL. In addition, in data set [5], the IC50 was determined as 398 nM.

Consider `Cc1ccncc1-n1c(=O)n(C)c2cnc3ccc(-c4ccc(N(C)C)nc4)cc3c21` [Example 4.4, 8-(6-Dimethylamino-pyridin-3-yl)-3-methyl-1-(4-methyl-pyridin-3-yl)-1,3-dihydro-imidazo[4,5-c]quinolin-2-one], for which the “HT-perm/logPe pH6.8” value in data set [1] was −3.8. Further, in data set [2], the solubility thermodynamic came to 2 µg/mL (≈ 4.87 µM). For the same compound, the IC50 in data set [3] was found to be 300 nM; in data set [4] it was 894 nM; in data set [5] it was 167 nM.

Turning to `COc1nc(N2CCNCC2)ccc1-n1c(=O)n(C)c2cnc3ccc(-c4cnc5c(ccn5C)c4)cc3c21` [Example 9.3, 1-(2-Methoxy-6-piperazin-1-yl-pyridin-3-yl)-3-methyl-8-(1-methyl-1H-pyrrolo[2,3-b]pyridin-5-yl)-1,3-dihydro-imidazo[4,5-c]quinolin-2-one], in data set [2], the solubility thermodynamic is 21 µg/mL (≈ 40.3 µM). In addition, the IC50 in data set [3] amounted to 9.39 nM; in data set [4], 52.9 nM; in data set [5] it was 6.5 nM.

In the case of `CNc1ncc(-c2ccc3ncc4c(c3c2)n(-c2ccc(OC)nc2Cl)c(=O)n4C)cn1` [Example 18.2, 1-(2-Chloro-6-methoxy-pyridin-3-yl)-3-methyl-8-(2-methylamino-pyrimidin-5-yl)-1,3-dihydro-imidazo[4,5-c]quinolin-2-one], the IC50 in data set [6] came to 1 nM; in data set [3], 7 nM; in data set [4], 12.2 nM; in data set [5], 7.8 nM. Further, the “HT-Perm logPe pH6.8” value in data set [1] is reported as −3.5. In addition, the solubility thermodynamic in data set [2] was 3 µg/mL (≈ 6.7 µM).

For the origin of these results see patent publication US20100311714A1, “1H-IMIDAZO[4,5-c]QUINOLINONE COMPOUNDS” (priority 2009, published 2010).
